# Experiments:
# [1] = target: human plasma kallikrein (Homo sapiens, UniProt P03952); assay: Kallikrein inhibition assay utilizing a quenched AMC peptide substrate (FLINT); format: biochemical; settings: kinetic reads at 5 min intervals over 30 min; 30 min preincubation; Z-Gly-Pro-Arg-AMC substrate; read-out: Kallikrein (KIN) IC50
# Method: Biological Example 2: Kallikrein Inhibition Assay Utilizing a Quenched AMC Peptide Substrate
# A fluorescence intensity (FLINT) based assay was used to monitor inhibition of human plasma kallikrein. The peptide substrate, Z-Gly-Pro-Arg-AMC (Purchased from Bachem; Catalog #I-1150) was chosen based on its relatively low KM for kallikrein which enables running the assay at lower substrate concentrations to control background fluorescence. The kinetic parameters for this substrate were determined by fitting titration data to the Michaelis-Menten equation yielding a KM=40 μM, kcat=0.76 s^−1, and kcat/KM=18932 M^−1s^−1.
# The Kallikrein FLINT assay was used with the following Z-Gly-Pro-Arg-AMC assay buffer: 50 mM Tris, pH 7.5, 100 mM NaCl, 5 mM CaCl2, 0.1 mg/mL BSA, 0.03% CHAPS. Assay buffer was prepared by mixing all ingredients fresh. 2× Z-Gly-Pro-Arg-AMC peptide substrate was prepared by diluting 10 mM stock into 1× assay buffer for a 100 μM working concentration (50 μM final concentration). The 2× kallikrein stock solution was prepared by diluting 14.76 μM stock in 1× assay buffer for a 4 nM working stock solution (2 nM final concentration).
# Test compound(s) were run in an 11-point, 3-fold serial dilution with a final top compound concentration of 1 μM. Final DMSO in assay was 2%. Plasma kallikrein was pre-incubated for 30-minute with compound and then 50 μM substrate was added to initiate the reaction. The assay was run with kinetic (KIN) reads at 5 min intervals over 30 minutes. The time course was linear using 2 nM kallikrein greater than 30 minutes. More specifically, the assay was run as follows: • 100 nL of 0.1 mM test compound was dispensed into black 384-well non-binding Greiner BioOne 784900 plate for 1 μM final concentration; • 5 μL of 1× assay buffer was dispensed to columns 24 (low control) and 5 μL 2× human kallikrein enzyme solution was dispensed to columns 1-23 (column 23 high control); • the plate was centrifuged with a “cover” plate at 500 rpm for 1 min the plate was pre-incubated for 30 minutes at room temperature with plate covered; • 5 μL of 2× Z-Gly-Pro-Arg-AMC peptide substrate was dispensed into the entire plate, columns 1-24; • the plate was centrifuged with a “cover” plate at 500 rpm for 1 min; • the plate was read monitoring fluorescence intensity on the BMG PHERAStar at room temperature, using fluorescence module 340 nm/440 nm.
# Percent inhibition (IC50) curves were generated per compound tested, and data was analyzed using a 4-parameter logistic fit using GeneData Screener. The relative fluorescence unit (RFU) values were normalized to percent inhibition using the following equation: % inhibition=((HC−LC)−(compound−LC)/(HC−LC))*100
# where LC—low control=mean signal of […] 100% inhibition of human kallikrein enzyme; HC—high control=mean signal of […]+Z-Gly-Pro-Arg-AMC peptide substrate with DMSO only.
# (§1) An 11-point dose response curve for the test compound(s) was generated using GENDATA to determine IC50 value based on the following equation: Y=Bottom+(Top−Bottom)/(1+10^((log IC50−X)*HillSlope))
# (§2) where Y is the % inhibition in the presence of X inhibitor concentration, Top=high control=mean signal of human kallikrein enzyme+Z-Gly-Pro-Arg-AMC peptide substrate with DMSO only; Bottom=low control−mean signal of no human kallikrein enzyme or 100% inhibition of human kallikrein enzyme; HillSlope—Hill coefficient; and IC50=concentration of compound with 50% inhibition in relation to top/high control.
# Representative compounds of formula (I) of the present invention were tested according to the procedure described in Biological Example 1 and Biological Example 2 above, with results as listed in Table 2, below. Results listed in the (ER) column were measured using endpoint reads where a single fluorescence reading was measured for each well at a 30 min timepoint. […]
# [2] = target: Factor XIa (Homo sapiens, UniProt P03951); assay: Factor XIa inhibition assay utilizing a fluorophore-quencher pair peptide substrate (FLINT); format: biochemical; settings: kinetic reads at 5 min intervals over 30 min; 30 min preincubation; 5Fam-KLTRAETV-K5Tamra substrate; read-out: FXIa (KIN) IC50
# Factor XIa, sequence (P03951 388-625 limits assumed): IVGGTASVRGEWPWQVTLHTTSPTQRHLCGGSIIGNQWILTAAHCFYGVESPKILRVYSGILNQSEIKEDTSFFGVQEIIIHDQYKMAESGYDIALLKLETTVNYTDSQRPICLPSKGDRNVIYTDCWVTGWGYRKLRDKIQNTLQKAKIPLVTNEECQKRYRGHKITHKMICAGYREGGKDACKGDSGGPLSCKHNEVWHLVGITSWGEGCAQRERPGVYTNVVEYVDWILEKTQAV
# Factor XIa, sequence (P03951 19-387 partner limits assumed): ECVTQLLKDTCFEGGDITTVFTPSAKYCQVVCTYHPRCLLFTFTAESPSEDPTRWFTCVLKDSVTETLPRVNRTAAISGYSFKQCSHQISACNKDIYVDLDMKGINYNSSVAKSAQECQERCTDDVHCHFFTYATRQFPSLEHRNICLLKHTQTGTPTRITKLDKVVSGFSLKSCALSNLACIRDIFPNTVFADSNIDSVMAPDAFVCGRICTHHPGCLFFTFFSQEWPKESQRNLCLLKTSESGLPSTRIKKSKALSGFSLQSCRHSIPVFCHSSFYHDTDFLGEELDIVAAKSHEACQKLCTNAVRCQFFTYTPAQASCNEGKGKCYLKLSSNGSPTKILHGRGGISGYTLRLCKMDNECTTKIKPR
# Description: Biological Example 1: Factor XIa Inhibition Assay Utilizing a Fluorophore-Quencher Pair Peptide Substrate
# A fluorescence intensity (FLINT) based assay was used to monitor inhibition of Factor XIa. The peptide substrate, 5Fam-KLTRAETV-K5Tamra (purchased from New England Peptide) was chosen based on the […]. Conversion of zymogen […]. The custom peptide used in this assay was based on the Arg146 cleavage site of FXI. The peptide substrate was designed with a fluorophore-quencher pair, where the fluorescence is quenched until FXIa cleaves the 8-mer peptide after the Arg residue. The substrate KM was fit to a substrate inhibition model whereby kcat=0.86 s^−1, KM=12.4 μM, Ki=61.6 μM with an enzymatic efficiency, and kcat/KM=69523 M^−1s^−1.
# The Factor XIa FLINT assay was used with the following 5Fam-KLTRAETV-K5Tamra assay buffer: 50 mM Tris, pH 7.5, 100 mM NaCl, 5 mM CaCl2, 0.1 mg/mL BSA, 0.03% CHAPS. Assay buffer was prepared by mixing all ingredients fresh. 5Fam-KLTRAETV-K5Tamra peptide substrate was first prepared at 10 mM in 100% DMSO, then diluted to 3 mM in 100% DMSO. Assay buffer was then added directly to the 3 mM stock of substrate to prepare the 30 μM 2× working concentration (15 μM final concentration). The 2× Factor XIa stock solution was prepared by diluting 6.562 μM stock in 1× assay buffer for a 200 pM working stock solution (100 pM final concentration).
# Test compound(s) were run in an 11-point, 3-fold serial dilution with a final top compound concentration of 100 nM. Final DMSO in assay was 2%. FXIa was preincubated with compound for 30-minutes and then substrate was added to initiate the reaction. The assay was run with either end point (EP) reads at 30 min or kinetic (KIN) reads at 5 min intervals over 30 minutes. The time course was linear using 100 μM FXIa greater than 30 minutes. More specifically, the assay was run as follows: • 100 nL of 0.01 mM test compound was dispensed into black 384-well non-binding Greiner BioOne 784900 plate for 0.1 μM final concentration; • 5 μL of 1× assay buffer was dispensed to column 24 (low control) and 5 μL 2× Factor XIa solution was dispensed to columns 1-23 (column 23 high control); • the plate was centrifuged with a “cover” plate at 500 rpm for 1 min the plate was pre-incubated for 30 minutes at room temperature with plate covered; • 5 μL of 2× 5Fam-KLTRAETV-K5Tamra peptide substrate was dispensed into the entire plate, columns 1-24; • the plate was centrifuged with a “cover” plate at 500 rpm for 1 min; • the plate was read monitoring fluorescence intensity on the BMG PHERAStar at room temperature, using fluorescence module 485 nm/520 nm.
# Percent inhibition (IC50) curves were generated per compound tested, and data was analyzed using a 4-parameter logistic fit using GeneData Screener. The relative fluorescence unit (RFU) values were normalized to percent inhibition using the following equation: % inhibition=((HC−LC)−(compound−LC)/(HC−LC))*100 where LC—low control=mean signal of no Factor XIa or 100% inhibition of Factor XIa; HC—high control=mean signal of Factor XIa+5Fam-KLTRAETV-K5Tamra peptide substrate with DMSO only.
# as §1
# as §2, with “Factor XIa+5Fam-KLTRAETV-K5Tamra” for “human kallikrein enzyme+Z-Gly-Pro-Arg-AMC”, “Factor XIa” for “human kallikrein enzyme”, “Factor XIa;” for “human kallikrein enzyme;”, “control. […]” for “control.”
# human plasma kallikrein, sequence (P03952 391-638 limits assumed): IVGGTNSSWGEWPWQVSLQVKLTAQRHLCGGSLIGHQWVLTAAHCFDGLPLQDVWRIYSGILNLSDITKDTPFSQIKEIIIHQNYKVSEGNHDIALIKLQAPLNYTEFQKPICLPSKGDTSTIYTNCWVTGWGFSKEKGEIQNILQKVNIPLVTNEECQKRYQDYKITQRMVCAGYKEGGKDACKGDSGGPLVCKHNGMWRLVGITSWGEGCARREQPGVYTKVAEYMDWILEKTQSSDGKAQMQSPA
# human plasma kallikrein, sequence (P03952 20-390 partner limits assumed): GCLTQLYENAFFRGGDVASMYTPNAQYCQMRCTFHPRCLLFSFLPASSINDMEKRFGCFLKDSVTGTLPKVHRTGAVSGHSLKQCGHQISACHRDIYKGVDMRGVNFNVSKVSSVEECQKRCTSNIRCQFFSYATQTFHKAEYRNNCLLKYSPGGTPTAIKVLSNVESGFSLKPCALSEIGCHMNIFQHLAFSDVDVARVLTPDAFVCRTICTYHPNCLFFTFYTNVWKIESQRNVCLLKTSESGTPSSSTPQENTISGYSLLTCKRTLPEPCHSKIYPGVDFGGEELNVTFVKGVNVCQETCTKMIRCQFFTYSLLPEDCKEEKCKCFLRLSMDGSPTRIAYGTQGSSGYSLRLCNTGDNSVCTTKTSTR
Compound,IC50 [1] [nM],IC50 [2] [nM]
"Nc1ccc(-c2cnn(C3CCc4cc(-c5c(-n6cnnn6)ccc(Cl)c5F)c[n+]([O-])c43)c2)c(Cl)n1 (single isomer, unassigned) [ID No. 21, (R*)-7-(4-(6-Amino-2-chloropyridin-3-yl)-1H-pyrazol-1-yl)-3-(3-chloro-2-fluoro-6-(1H-tetrazol-1-yl)phenyl)-6,7-dihydro-5H-cyclopenta[b]pyridine 1-oxide]",> 10000,2380
"Nc1ccc(-c2cnn(C3CCCc4cc(-c5c(-n6cnnn6)ccc(Cl)c5F)c[n+]([O-])c43)c2)c(F)n1 (single isomer, unassigned) [ID No. 32, (S*)-8-(4-(6-Amino-2-fluoropyridin-3-yl)-1H-pyrazol-1-yl)-3-(3-chloro-2-fluoro-6-(1H-tetrazol-1-yl)phenyl)-5,6,7,8-tetrahydroquinoline 1-oxide]",> 10000,> 10000
"Cn1nncc1-c1cnn([C@H]2CCc3cc(-c4c(-n5cnnn5)ccc(Cl)c4F)c[n+]([O-])c32)c1 [ID No. 25, (S)-3-(3-Chloro-2-fluoro-6-(1H-tetrazol-1-yl)phenyl)-7-(4-(1-methyl-1H-1,2,3-triazol-5-yl)-1H-pyrazol-1-yl)-6,7-dihydro-5H-cyclopenta[b]pyridine 1-oxide]",> 10000,> 10000
"Cn1nncc1-c1cnn([C@@H]2CCc3cc(-c4c(-n5cnnn5)ccc(Cl)c4F)c[n+]([O-])c32)c1 [ID No. 26, (R)-3-(3-Chloro-2-fluoro-6-(1H-tetrazol-1-yl)phenyl)-7-(4-(1-methyl-1H-1,2,3-triazol-5-yl)-1H-pyrazol-1-yl)-6,7-dihydro-5H-cyclopenta[b]pyridine 1-oxide]",4040,42

# Stronger by IC50 [1], values ahead:
IC50 [1] [nM],IC50 [2] [nM],Compound
176,3,"Nc1ccc(-c2cnn(C3CCc4cc(-c5c(-n6cnnn6)ccc(Cl)c5F)c[n+]([O-])c43)c2)c(Cl)n1 (single isomer, unassigned) [ID No. 22, (S*)-7-(4-(6-Amino-2-chloropyridin-3-yl)-1H-pyrazol-1-yl)-3-(3-chloro-2-fluoro-6-(1H-tetrazol-1-yl)phenyl)-6,7-dihydro-5H-cyclopenta[b]pyridine 1-oxide]"
240,> 100,"NC(=O)c1ccc(-c2cnn(C3CCc4cc(-c5c(-n6cc(C(F)(F)F)nn6)ccc(Cl)c5F)c[n+]([O-])c43)c2)cc1F (single isomer, unassigned) [ID No. 27, (R*)7-(4-(4-Carbamoyl-3-fluorophenyl)-1H-pyrazol-1-yl)-3-(3-chloro-2-fluoro-6-(4-(trifluoromethyl)-1H-1,2,3-triazol-1-yl)phenyl)-6,7-dihydro-5H-cyclopenta[b]pyridine 1-oxide]"
67,37,"NC(=O)c1ccc(-c2cnn(C3CCc4cc(-c5c(-n6cc(C(F)(F)F)nn6)ccc(Cl)c5F)c[n+]([O-])c43)c2)cc1F (single isomer, unassigned) [ID No. 28, (S*)-7-(4-(4-Carbamoyl-3-fluorophenyl)-1H-pyrazol-1-yl)-3-(3-chloro-2-fluoro-6-(4-(trifluoromethyl)-1H-1,2,3-triazol-1-yl)phenyl)-6,7-dihydro-5H-cyclopenta[b]pyridine 1-oxide]"
987,40,"Nc1ccc(-c2cnn(C3CCCc4cc(-c5c(-n6cnnn6)ccc(Cl)c5F)c[n+]([O-])c43)c2)c(F)n1 (single isomer, unassigned) [ID No. 31, (R*)-8-(4-(6-Amino-2-fluoropyridin-3-yl)-1H-pyrazol-1-yl)-3-(3-chloro-2-fluoro-6-(1H-tetrazol-1-yl)phenyl)-5,6,7,8-tetrahydroquinoline 1-oxide]"
461,24,"COC(=O)Nc1ccc(-c2cn(C3CCc4cc(-c5c(-n6cnnn6)ccc(Cl)c5F)c[n+]([O-])c43)cn2)cc1 (stereo not drawn) [ID No. 2, 3-(3-Chloro-2-fluoro-6-(1H-tetrazol-1-yl)phenyl)-7-(4-(4-((methoxycarbonyl)amino)phenyl)-1H-imidazol-1-yl)-6,7-dihydro-5H-cyclopenta[b]pyridine 1-oxide]"
